The target of this assay is T1, CB-1 receptor (Homo sapiens, UniProt P21554).
T1 construct: expressed in transfected cells; host or cells: HEK 293 cells (membrane preparation); cDNA obtained from Dr. Debra Kendall, University of Connecticut
Kind of assay: Human CB-1 receptor binding ([3H]SR141716A displacement). Conditions: CB-1 receptor binding assay, inhibition of [3H] SR141716A binding. How it is done: Human embryonic kidney 293 (HEK 293) cells transfected with the CB-1 receptor cDNA (obtained from Dr. Debra Kendall, University of Connecticut) were harvested in homogenization buffer (10 mM EDTA, 10 mM EGTA, 10 mM Na Bicarbonate, protease inhibitors; pH=7.4), and homogenized with a Dounce Homogenizer. The homogenate was then spun at 1,000×g for 5 minutes at 4° C. The supernatant was recovered and centrifuged at 25,000×G for 20 minutes at 4° C. The pellet was then re-suspended in 10 ml of homogenization buffer and re-spun at 25,000×G for 20 minutes at 4° C. The final pellet was re-suspended in 1 ml of TME (25 mM Tris buffer (pH=7.4) containing 5 mM MgCl2 and 1 mM EDTA). A protein assay was performed and 200 μl of tissue totaling 20 μg was added to the assay.
The test compounds were diluted in drug buffer (0.5% BSA, 10% DMSO and TME) and then 25 μl were added to a deep well polypropylene plate. [^3H] SR141716A was diluted in a ligand buffer (0.5% BSA plus TME) and 25 μl were added to the plate. The plates were covered and placed in an incubator at 30° C. for 60 minutes. At the end of the incubation period 250 μl of stop buffer (5% BSA plus TME) was added to the reaction plate. […] In the morning the filters were counted on a Wallac Betaplate™ counter (available from PerkinElmer Life Sciences™, Boston, Mass.).

T1 sequence (P21554 whole entry): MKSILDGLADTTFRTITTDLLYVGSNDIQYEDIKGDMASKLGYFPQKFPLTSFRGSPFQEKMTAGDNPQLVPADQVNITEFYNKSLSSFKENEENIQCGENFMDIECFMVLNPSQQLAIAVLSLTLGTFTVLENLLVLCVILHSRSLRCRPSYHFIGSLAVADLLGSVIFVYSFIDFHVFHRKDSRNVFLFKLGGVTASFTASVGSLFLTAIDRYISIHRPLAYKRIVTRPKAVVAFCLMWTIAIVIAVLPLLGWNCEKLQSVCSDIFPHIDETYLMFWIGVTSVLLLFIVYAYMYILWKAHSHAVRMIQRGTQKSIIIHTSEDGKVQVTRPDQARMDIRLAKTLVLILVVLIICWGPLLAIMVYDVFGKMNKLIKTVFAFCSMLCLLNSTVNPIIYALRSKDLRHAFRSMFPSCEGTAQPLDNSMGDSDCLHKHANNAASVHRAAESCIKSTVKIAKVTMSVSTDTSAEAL

Compound `Cc1cccc(CN2CCOC(c3nn(-c4ccccc4Cl)c(-c4ccc(Cl)cc4)c3C)C2)n1` (stereo not shown) [Example 5A-6, 2-[1-(2-Chlorophenyl)-5-(4-chlorophenyl)-4-methyl-1H-pyrazol-3-yl]-4-(6-methyl-pyridin-2-ylmethyl)-morpholine] returned a binding affinity of 79 nM.

Values taken from patent US7247628B2, “Cannabinoid receptor ligands and uses thereof” (Pfizer, Inc., priority 2002, dated 2007).
